According to US10941152B2, “Pyrazole compounds as modulators of FSHR and uses thereof” (TOCOPHERX, INC., priority 2014, dated 2021):

How the values were obtained:
[1] = target: T1, follicle-stimulating hormone (FSH) receptor (Rattus norvegicus, UniProt P20395); test: Rat granulosa EC50 FSH (Assay B); assay type: cell-based
T1 construct: endogenous in cells; host or cells: rat granulosa cells
T1 sequence (P20395 18-692): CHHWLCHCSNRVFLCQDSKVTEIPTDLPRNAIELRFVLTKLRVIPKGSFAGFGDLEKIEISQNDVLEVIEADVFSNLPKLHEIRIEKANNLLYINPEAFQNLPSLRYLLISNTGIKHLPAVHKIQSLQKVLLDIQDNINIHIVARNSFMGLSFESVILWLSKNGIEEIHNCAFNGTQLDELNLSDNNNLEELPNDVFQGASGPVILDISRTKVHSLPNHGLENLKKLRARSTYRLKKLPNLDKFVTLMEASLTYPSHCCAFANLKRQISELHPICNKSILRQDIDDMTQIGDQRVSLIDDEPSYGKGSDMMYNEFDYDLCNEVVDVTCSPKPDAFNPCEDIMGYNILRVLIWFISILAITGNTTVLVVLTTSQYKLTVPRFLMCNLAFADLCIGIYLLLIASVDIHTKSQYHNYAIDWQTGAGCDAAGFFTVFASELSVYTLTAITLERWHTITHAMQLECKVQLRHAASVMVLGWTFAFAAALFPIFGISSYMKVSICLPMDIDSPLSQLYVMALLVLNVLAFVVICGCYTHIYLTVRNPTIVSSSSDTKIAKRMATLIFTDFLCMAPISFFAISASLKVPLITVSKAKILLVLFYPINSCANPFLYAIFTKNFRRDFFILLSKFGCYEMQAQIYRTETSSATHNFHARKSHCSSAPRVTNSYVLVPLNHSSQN
Experimental: Example 25. Rat granulosa EC50 FSH (Assay B)
The assay was performed pursuant to the teaching of Yanofsky et al. (2006) Allosteric activation of the follicle-stimulating hormone (FSH) receptor by selective, nonpeptide agonists (JBC 281(19): 13226-13233, which is incorporated by reference in the disclosure of the invention).

[2] = target: T2, FSHR (Homo sapiens, UniProt P23945); test: EC50 of cyclic AMP production in CHO FSHR cells + EC20 FSH (Assay A); assay type: cell-based; settings: cyclic AMP production in CHO FSHR cells + EC20 FSH (0.265 pM), HTRF
T2 construct: expressed in transfected cells; host or cells: CHO (Cho-FSHR-LUC-1-1-43)
T2 sequence (P23945 18-695): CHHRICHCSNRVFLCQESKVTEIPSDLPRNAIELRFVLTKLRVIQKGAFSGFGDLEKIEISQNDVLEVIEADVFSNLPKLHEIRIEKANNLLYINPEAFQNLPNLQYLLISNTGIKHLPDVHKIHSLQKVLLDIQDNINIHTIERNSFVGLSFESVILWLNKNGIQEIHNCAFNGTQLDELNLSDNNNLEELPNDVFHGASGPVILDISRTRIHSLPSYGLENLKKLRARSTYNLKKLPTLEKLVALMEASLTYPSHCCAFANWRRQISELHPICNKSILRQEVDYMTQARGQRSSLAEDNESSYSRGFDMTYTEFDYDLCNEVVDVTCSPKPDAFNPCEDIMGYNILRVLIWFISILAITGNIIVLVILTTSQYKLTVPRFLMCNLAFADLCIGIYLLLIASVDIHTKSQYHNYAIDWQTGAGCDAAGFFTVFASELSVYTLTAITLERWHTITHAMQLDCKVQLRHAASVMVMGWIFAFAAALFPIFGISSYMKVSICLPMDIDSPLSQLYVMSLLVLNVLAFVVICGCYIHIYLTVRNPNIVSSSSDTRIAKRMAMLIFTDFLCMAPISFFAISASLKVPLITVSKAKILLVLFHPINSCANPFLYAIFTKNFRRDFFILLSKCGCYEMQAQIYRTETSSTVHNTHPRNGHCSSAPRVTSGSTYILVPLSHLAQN
Outline: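 cAMP was detected by HTRF as the 665/620 nm ratio. The CHO-FSHR cells had first been exposed for 1 h at 37° C to test compound together with 0.265 pM FSH (EC20) and 200 μM IBMX. Responses are given as percent of the FSH standard maximum.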

Structure (SMILES) | EC50 [1] [nM] | EC50 [2] [nM]
COc1cc2c(cc1-c1nccc(C(N)=O)n1)-c1c(c(C(=O)N(C)C(C)(C)C)nn1-c1cc(Cl)cc(Cl)c1)CO2 [Compound 111, N-tert-butyl-8-(4-carbamoylpyrimidin-2-yl)-1-(3,5-dichlorophenyl)-7-methoxy-N-methyl-1,4-dihydrochromeno[4,3-c]pyrazole-3-carboxamide] | 101 to 500 | 10 to 100
COc1cc2c(cc1-c1cncc(CO)c1)-c1c(c(C(=O)N(C)C(C)(C)C)nn1-c1cc(Cl)cc(Cl)c1)CO2 [Compound 23, N-tert-butyl-1-(3,5-dichlorophenyl)-8-(5-(hydroxymethyl)pyridin-3-yl)-7-methoxy-N-methyl-1,4-dihydrochromeno[4,3-c]pyrazole-3-carboxamide] | 10 to 100 | < 10
COCC1(CC(F)(F)F)CCCN1C(=O)c1nn(-c2ccsc2)c2c1COc1cc(OC)c(-c3ccn(C)n3)cc1-2 (stereo not shown) [Compound 131, (7-methoxy-8-(1-methyl-1H-pyrazol-3-yl)-1-(thiophen-3-yl)-1,4-dihydrochromeno[4,3-c]pyrazol-3-yl)(2-(methoxymethyl)-2-(2,2,2-trifluoroethyl)pyrrolidin-1-yl)methanone] | 10 to 100 | 10 to 100
COc1cc(OC)cc(-n2nc(C(=O)N(C)C(C)(C)C)c3c2-c2cc(-c4ccn(C)n4)c(OC)cc2OC3)c1 [Compound 37, N-tert-butyl-1-(3,5-dimethoxyphenyl)-7-methoxy-N-methyl-8-(1-methyl-1H-pyrazol-3-yl)-1,4-dihydrochromeno[4,3-c]pyrazole-3-carboxamide] | > 500 | 10 to 100
COc1cc2c(cc1-c1c(C)nn(CC(=O)O)c1C)-c1c(c(C(=O)N(C)C(C)(C)C)nn1-c1cc(Cl)cc(Cl)c1)CO2 [Compound 137, 2-(4-(3-(tert-butyl(methyl)carbamoyl)-1-(3,5-dichlorophenyl)-7-methoxy-1,4-dihydrochromeno[4,3-c]pyrazol-8-yl)-3,5-dimethyl-1H-pyrazol-1-yl)acetic acid] | 101 to 500 | < 10
COc1cc2c(cc1-c1ccn(C)n1)-c1c(c(C(=O)N(C)C(C)(C)C)nn1-c1cc(C)cc(Cl)c1)CO2 [Compound 30, N-tert-butyl-1-(3-chloro-5-methylphenyl)-7-methoxy-N-methyl-8-(1-methyl-1H-pyrazol-3-yl)-1,4-dihydrochromeno[4,3-c]pyrazole-3-carboxamide] | 101 to 500 | 101 to 500
CNC(=O)Cn1cc(-c2cc3c(cc2OC)OCc2c(C(=O)N(C)C(C)(C)C)nn(-c4cc(Cl)cc(Cl)c4)c2-3)cn1 [Compound 91, N-tert-butyl-1-(3,5-dichlorophenyl)-7-methoxy-N-methyl-8-(1-(2-(methylamino)-2-oxoethyl)-1H-pyrazol-4-yl)-1,4-dihydrochromeno[4,3-c]pyrazole-3-carboxamide] | 10 to 100 | < 10
COc1cc(Cl)cc(-n2nc(C(=O)N3CCOCC3(C)C)c3c2-c2cc(-c4ccn(C)n4)c(OC)cc2OC3)c1 [Compound 33, (1-(3-chloro-5-methoxyphenyl)-7-methoxy-8-(1-methyl-1H-pyrazol-3-yl)-1,4-dihydrochromeno[4,3-c]pyrazol-3-yl)(3,3-dimethylmorpholino)methanone] | 10 to 100 | < 10
COc1cc2c(cc1OC(C)CO)-c1c(c(C(=O)N(C)C(C)(C)C)nn1-c1ccsc1)CO2 (stereo not shown) [Compound 193, N-tert-butyl-8-(1-hydroxypropan-2-yloxy)-7-methoxy-N-methyl-1-(thiophen-3-yl)-1,4-dihydrochromeno[4,3-c]pyrazole-3-carboxamide] | 101 to 500 | 10 to 100
COc1cc(F)cc(-n2nc(C(=O)N3CCOCC3(C)C)c3c2-c2cc(-c4cnn(CC(=O)O)c4)c(OC)cc2OC3)c1 [Compound 89, 2-(4-(3-(3,3-dimethylmorpholine-4-carbonyl)-1-(3-fluoro-5-methoxyphenyl)-7-methoxy-1,4-dihydrochromeno[4,3-c]pyrazol-8-yl)-1H-pyrazol-1-yl)acetic acid] | 101 to 500 | < 10
COc1cc2c(cc1-c1cc(Cl)cc(C(N)=O)c1)-c1c(c(C(=O)N(C)C(C)(C)C)nn1-c1cc(F)cc(F)c1)CO2 [Compound 165] | 10 to 100 | < 10

Now from value to molecule:

EC50 [1] [nM] | EC50 [2] [nM] | Structure (SMILES)
10 to 100 | < 10 | COc1cc2c(cc1-c1cncc(C(N)=O)c1C)-c1c(c(C(=O)N(C)C(C)(C)C#N)nn1-c1cc(Cl)cc(Cl)c1)CO2 [Compound 118, 8-(5-carbamoyl-4-methylpyridin-3-yl)-N-(2-cyanopropan-2-yl)-1-(3,5-dichlorophenyl)-7-methoxy-N-methyl-1,4-dihydrochromeno[4,3-c]pyrazole-3-carboxamide]
10 to 100 | < 10 | COc1cc2c(cc1-c1cnn(C(N)=O)c1)-c1c(c(C(=O)N(C)C(C)(C)C)nn1-c1cc(Cl)cc(Cl)c1)CO2 [Compound 181, N-tert-butyl-8-(1-carbamoyl-1H-pyrazol-4-yl)-1-(3,5-dichlorophenyl)-7-methoxy-N-methyl-1,4-dihydrochromeno[4,3-c]pyrazole-3-carboxamide]
10 to 100 | < 10 | COc1cc2c(cc1CC(C)C)-c1c(c(C(=O)N3CCC(=O)CC3(C)C)nn1-c1ccsc1)CO2 [Compound 125, 1-(8-isobutyl-7-methoxy-1-(thiophen-3-yl)-1,4-dihydrochromeno[4,3-c]pyrazole-3-carbonyl)-2,2-dimethylpiperidin-4-one]
10 to 100 | < 10 | COc1cc2c(cc1-c1cncc(NC(N)=O)c1)-c1c(c(C(=O)N(C)C(C)(C)C)nn1-c1cc(Cl)cc(Cl)c1)CO2 [Compound 183, N-tert-butyl-1-(3,5-dichlorophenyl)-7-methoxy-N-methyl-8-(5-ureidopyridin-3-yl)-1,4-dihydrochromeno[4,3-c]pyrazole-3-carboxamide]
10 to 100 | < 10 | COc1cc2c(cc1-c1ccccn1)-c1c(c(C(=O)N3CCC(O)CC3(C)C)nn1-c1cc(Cl)cc(Cl)c1)CO2 (stereo not shown) [Compound 102, (1-(3,5-dichlorophenyl)-7-methoxy-8-(pyridin-2-yl)-1,4-dihydrochromeno[4,3-c]pyrazol-3-yl)(4-hydroxy-2,2-dimethylpiperidin-1-yl)methanone]
10 to 100 | < 10 | COc1cc2c(cc1-c1cccc(O)c1)-c1c(c(C(=O)N(C)C(C)(C)C)nn1-c1cc(Cl)cc(Cl)c1)CO2 [Compound 22, N-tert-butyl-1-(3,5-dichlorophenyl)-8-(3-hydroxyphenyl)-7-methoxy-N-methyl-1,4-dihydrochromeno[4,3-c]pyrazole-3-carboxamide]
10 to 100 | 10 to 100 | COc1cc2c(cc1-c1cnn(CC(=O)N3CCC3)c1)-c1c(c(C(=O)N(C)C(C)(C)C)nn1-c1cc(Cl)cc(Cl)c1)CO2 [Compound 95, 8-(1-(2-(azetidin-1-yl)-2-oxoethyl)-1H-pyrazol-4-yl)-N-tert-butyl-1-(3,5-dichlorophenyl)-7-methoxy-N-methyl-1,4-dihydrochromeno[4,3-c]pyrazole-3-carboxamide]
101 to 500 | < 10 | COc1cc2c(cc1-c1cncc(C(N)=O)c1)-c1c(c(C(=O)N3CCC(O)CC3(C)C)nn1-c1cc(F)cc(F)c1)CO2 (stereo not shown) [Compound 162]
< 10 | < 10 | CNC(=O)c1cncc(-c2cc3c(cc2OC)OCc2c(C(=O)N4CCOCC4(C)C)nn(-c4cc(Cl)cc(Cl)c4)c2-3)c1 [Compound 94, 5-(1-(3,5-dichlorophenyl)-3-(3,3-dimethylmorpholine-4-carbonyl)-7-methoxy-1,4-dihydrochromeno[4,3-c]pyrazol-8-yl)-N-methylnicotinamide]
